Measurements from patent publication US6767891B2, “Peptides with wound healing activity” (priority 2000, dated 2004).
Where no end group is shown, it is not given here.

Tests used:
[1] = tested on: normal human vascular endothelial cells (NHVEC); assay: Boyden chamber migration assay; assay type: cell-based; conditions: for cell migration over migration in the presence of media alone / migration response compared to positive controls VEGF, PDGF, FGF: 100 ng/ml; for concentration of maximal effect on migration: dose response
Method: The effects of TB4 and TA1 on endothelial cell migration were determined. To investigate the possibility that these peptides effect the migration of normal human vascular endothelial cells (NHVEC) in vitro, a Boyden chamber migration assay was performed.
In the experiments of Table 1 and FIG. 1, normal human […] endothelial cells are used at 5×10^4 cells per well. The wells are coated with 100 μg/ml […] Type IV.

[2] = tested on: ulcerations of fingers secondary to burns, diabetes mellitus; assay: Clinical course of Patient 2, finger ulcerations; assay type: in vivo, human
Method: The glucose levels of the patient were not kept under control. The patient developed heat burns with blistering and erosions on the patient's fingers. The ulcers are cleansed and Silvadene cream is used for wound healing, which usually takes 2-4 weeks. Occasionally, systematic antibiotics are given.
The patient was seen after having burned the distal phalanx of the left middle finger with a hairdryer 10 days before. The patient had taken some leftover Ceftin 250 mg twice daily and has used Silvadene cream twice daily for the 10 days, but the ulcer would not heal. The ulcer was debrided and the patient was given a preparation containing TA5 to use on the ulcer base twice daily. This ulcer was on the lateral thenar side of the left middle finger.
Approximately six weeks later, the patient had developed new ulcerations of the right index finger on the palmar-ventral side (5 days), and two ulcerations on the right middle finger on the distal digit, lateral thenar side (5 days) and the second digit on the dorsal side (2 weeks history). These ulcerations had developed after the patient had handled hot items. Dicloxacillin (500 mg twice daily) was given for 10 days. The patient was given TB4 wound healing preparation to be used twice daily to the ulcerations.

chronic wounds = assay: Pilot study in humans with chronic wounds, collagen synthesis; assay type: in vivo, human; conditions: 20 volunteers, biopsies at baseline and two months, preliminary results
Method: A pilot study of TA1 and TA5 was performed in humans with 20 volunteers with chronic wounds. Skin biopsies were taken at the baseline and at two months, subjected to histological analysis, immunohistological analysis, and objective and subjective observation. Immunohistochemistry endpoints were epidermal differentiation, epidermal proliferation, and markers of inflammation and were assayed by using anti-CD3 monoclonal antibody.

NHVEC = assay: scratch wound closure assay; assay type: cell-based, human; conditions: 10 ng/ml, scratched confluent monolayer
Method: To examine the effects of TB4 and TA1 (10 ng/ml) on NHVEC migration, a scratch would closure assay was used.

[3] = tested on: healed wound erythema, melanin pigmentation; assay: Clinical effects of TB4 in vivo (erythema, pigmentation)
From the text: There was not post-inflammatory erythema and hyperpigmentation. Frequently, the skin color was normal and not the expected deep red-purple with brown coloration that would take months to resolve on the leg.
Another effect seen is the reduction of melanin pigmentation on the areas of treatment with TB4.

endothelial cells = assay: MTT (tetrazolium) endothelial cell proliferation assay; assay type: cell-based; conditions: 10 ng/ml; 4 hours and 24 hours
Method: The effects of TB4 and TA1 on endothelial cell proliferation were determined using a MTT (tetrazolium) assay. The results are shown in FIG. 2 for 4 hours and 24 hours and for three concentrations of these peptides, 10 ng/ml, 100 ng/ml, and 1000 ng/ml. […] At a concentration of 10 ng/ml, TB4 and TA1 maximally stimulated cell proliferation approximately 2-fold and 3-fold over that of the control, respectively.

venous stasis ulceration = assay: Clinical course of Patient 1, shin ulcer; assay type: in vivo, human
From the text: The injury started with a bruise on the left shin, but approximately seven weeks later the area started to get erythematous. The patient was sent by the general internist to the local hospital wound healing center, where the wound was debrided and Silvadene cream was used. However, the patient was not progressing well and grafting was considered. […] The underlying problem was venous stasis with the development of ulceration secondary to minor trauma. The ulcer was about 3.0 cm by 1.0 cm in size with a 1-cm rim of mild erythema. […] The patient was given a preparation containing TA1 to be used twice daily to the small 4 mm area.
The treatment with TA1 was continued for another week twice daily.
At this point, treatment was changed to a preparation containing TB4 to be applied twice daily to the entire ulcer.
After the entire ulcer had been treated for seven days with TB4 twice daily, it was noted that the size of the ulcer was starting to reduce. The wound center physician was concerned about infection (cellulitis around the ulcer). The patient was placed on oral antibiotics for 10 days. However, when the surrounding erythema was palpated, there was no tenderness. The wound appeared to be repairing and increasing the vascular flow to the ulcer base and surrounding skin. The patient felt that after treating the entire for seven days they improved by 40%. The patient was given more preparation containing TB4 for the next week. The internist felt that the patient should not undergo surgery for grafting due to cardiac problems in view of the improvement in the wound.

[4] = Isoelectric point of peptide; assay type: physicochemical
[5] = tested on: full thickness punch wounds in rat skin; assay: Wound healing in vivo, full thickness punch wounds
Method: To study the effect of TA1 on wound healing in vivo, full thickness punch wounds were made in rat skin and treated with TA1 topically or by intraperitoneal injection with a seven-day study interval. For topical treatment, 5 μg of TA1 was applied in 50 μl saline on injury date and 48 hours post-injury. For intraperitoneal treatment, 60 μg of TA1 was administered in 300 μl saline on injury date and then every other day.

[6] = 10 μg/ml, 5×10^4 cells per well

Substance	stimulating collagen synthesis compared with tretinoin and vitamin C (chronic wounds)	migration of cells into the wounded area compared to media alone (NHVEC)	maximal stimulation of cell proliferation over that of the control (endothelial cells)	Cell Number per HPF, Chamber 1 ([1]; 0.1 μg/ml) [per HPF]	Cell Number per HPF, Chamber 2 ([1]; 0.1 μg/ml) [per HPF]	Cell Number per HPF, Chamber 3 ([1]; 0.1 μg/ml) [per HPF]	Cell Number per HPF, Mean ([1]; 0.1 μg/ml) [per HPF]	cell migration over migration in the presence of media alone [1]	migration response compared to positive controls VEGF, PDGF, FGF [1]	Cell Number per HPF, Chamber 1 ([1]; 0.5 μg/ml) [per HPF]	Cell Number per HPF, Chamber 2 ([1]; 0.5 μg/ml) [per HPF]	Cell Number per HPF, Chamber 3 ([1]; 0.5 μg/ml) [per HPF]	Cell Number per HPF, Mean ([1]; 0.5 μg/ml) [per HPF]	Cell Number per HPF, Chamber 1 ([1]; 1 μg/ml) [per HPF]	Cell Number per HPF, Chamber 2 ([1]; 1 μg/ml) [per HPF]	Cell Number per HPF, Chamber 3 ([1]; 1 μg/ml) [per HPF]	Cell Number per HPF, Mean ([1]; 1 μg/ml) [per HPF]	Cell Number per HPF, Chamber 1 ([1]; 5 μg/ml) [per HPF]	Cell Number per HPF, Chamber 2 ([1]; 5 μg/ml) [per HPF]	Cell Number per HPF, Chamber 3 ([1]; 5 μg/ml) [per HPF]	also measured
VEGF [reference compound]	–	–	–	–	–	–	–	–	–	–	–	–	–	–	–	–	–	–	–	–	Cell Number per HPF, Chamber 1 ([1]; 10 ng/ml, positive control): 88 per HPF; Cell Number per HPF, Chamber 2 ([1]; 10 ng/ml, positive control): 95 per HPF; Cell Number per HPF, Chamber 3 ([1]; 10 ng/ml, positive control): 97 per HPF; Cell Number per HPF, Mean ([1]; 10 ng/ml, positive control): 93 per HPF
KKLKKEENPLELKEKLKEKKNPLPSKEEEKASPFDKI -T-E-T-P-D-M-S [TA5]	more effective in stimulating collagen synthesis than tretinoin or vitamin C	–	–	–	–	–	–	–	–	–	–	–	–	–	–	–	–	–	–	–	new shallow ulceration resolved ([2]; one week, twice daily): approximately 70%; status of ulcer, left middle finger ([2]; one week, twice daily on ulcer base): dramatic improvement of the ulcer base; older, deeper ulceration healing ([2]; two weeks, twice daily): healing more rapidly than previously
Ac-ANKGQAPGEAMKPSFLKEKKEVVERSKEEEGPAKMNLVIEMPKD (Ac-ANKGQAPGEAMKPSFLKEKKEVVERSKEEEGPAKMNLVIEMPKD) [TB4]	–	significantly increased	approximately 2 fold	18	12	26	19	significantly enhanced cell migration	heightened responses	33	39	50	41	45	47	63	52	55	65	57	clinical intensity of brown melasma, lentigines, post-inflammatory hyperpigmentation and ephelides ([3]; areas of treatment): definite reduction in the clinical intensity; effect on erythema of the healed wound ([3]; e.g. on the shin): reducing the erythema of the healed wound; erythema of poikiloderma vasculare of the neck secondary to chronic sun exposure ([3]; evaluation not continued): erythema was reducing; size of the ulcer (venous stasis ulceration; after another seven days (14 days), peripheral islands of healing): size of the ulcer was the same; improvement felt by the patient (venous stasis ulceration; after treating entire ulcer for seven days): 40%; status of ulcer (venous stasis ulceration; another seven days after FIG. 11): almost completely closed; status of ulcer (venous stasis ulceration; another two weeks, once daily, FIG. 12): no ulceration; ulcers cleared ([2]; another five days (12 days)): approximately 90%; improvement in the ulcerations ([2]; one week, twice daily, dicloxacillin also given): 70-80%; Cell Number per HPF, Mean ([1]; 5 μg/ml): 59 per HPF; Cell Number per HPF, Chamber 2 ([1]; 10 μg/ml): 77 per HPF; Cell Number per HPF, Chamber 3 ([1]; 10 μg/ml): 66 per HPF; Cell Number per HPF, Mean ([1]; 10 μg/ml): 71 per HPF; Cell Number per HPF, Chamber 1 [1, 6]: 70 per HPF; concentration of maximal effect on migration [1]: 100 ng/mL
Ac-SDAAVDTSSEITTKDLKEKKEVVEEAEN [TA1]	more effective in stimulating collagen synthesis than tretinoin or vitamin C	significantly increased	~3 fold	38	45	33	39	significantly enhanced cell migration	heightened responses	52	53	57	54	64	69	43	59	35	64	72	isoelectric point [4]: 4.1; status of ulcer (venous stasis ulceration; after 1 week, twice daily to the small 4 mm area): improvement was noted; deeper 4 mm area of the ulceration (venous stasis ulceration; after 2 weeks, twice daily): now level with the rest of the ulcer; Cell Number per HPF, Mean ([1]; 5 μg/ml): 57 per HPF; Cell Number per HPF, Chamber 2 ([1]; 10 μg/ml): 55 per HPF; Cell Number per HPF, Chamber 3 ([1]; 10 μg/ml): 66 per HPF; Cell Number per HPF, Mean ([1]; 10 μg/ml): 57 per HPF; Cell Number per HPF, Chamber 1 [1, 6]: 51 per HPF; concentration of maximal effect on migration [1]: 100 ng/mL; 4-day post-injury findings: capillary ingrowth and collagen deposition ([5]; 4-day post-injury): increased capillary ingrowth and collagen deposition; 4-day post-injury findings: reepithelialization, wound contraction, keratinocyte migration ([5]; 4-day post-injury): accelerated reepithelialization, wound contraction, and keratinocyte migration; decrease in wound width versus normal saline control ([5]; intraperitoneal 60 μg, p 0.0001 four-day, p 0.08 seven-day): 42%±9%; decrease in gap size versus normal saline (NS) control ([5]; intraperitoneal 60 μg, p 0.0007 for four-day and seven-day results): 42%±9%; decrease in wound width versus normal saline (NS) control ([5]; topical 5 μg, p 0.0001 four and seven-day results): 15%; decrease in gap size versus normal saline (NS) control ([5]; topical 5 μg, significant for seven-day results (p 0.04)): 18%±12%
